Test results as given in PubChem BioAssay AID330 (DTP/NCI, 2004).
“And” between values parts separate entries of the source, which are not always exact repeats. Identical values can stand only once. Inconclusive results and toxic doses are left out. How the source made its calls: active means survival T/C of 150% or more; inactive means T/C below 125% in these data.

Tested on: P388 leukemia ip, CD2F1 mice, survival T/C
Assay: NCI In Vivo Anticancer Drug Screen. Data for tumor model P388 Leukemia (intraperitoneal) in CD2F1 (CDF1) mice
Conditions: endpoint: median survival time, higher = longer survival
Outline: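 Mice carrying the transplanted tumor received test compound or vehicle. Survival was recorded in each group, and the value is the treated-group measurement divided by that of the vehicle-treated control group.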

[1] = dose: 60.0 mg/kg/injection, schedule: Q01DX005 (ip), vehicle: Klucel (hydroxypropylcellulose) (HPC)
[2] = dose: 120.0 mg/kg/injection, schedule: Q01DX005 (ip), vehicle: Klucel (hydroxypropylcellulose) (HPC)
[3] = dose: 240.0 mg/kg/injection, schedule: Q01DX005 (ip), vehicle: Klucel (hydroxypropylcellulose) (HPC)
[4] = dose: 50.0 mg/kg/injection, schedule: Q01DX005 (ip), vehicle: Klucel (hydroxypropylcellulose) (HPC)
[5] = dose: 100.0 mg/kg/injection, schedule: Q01DX005 (ip), vehicle: Klucel (hydroxypropylcellulose) (HPC)
[6] = dose: 200.0 mg/kg/injection, schedule: Q01DX005 (ip), vehicle: Klucel (hydroxypropylcellulose) (HPC)
[7] = dose: 50.0 mg/kg/injection, schedule: Q01DX009 (ip), vehicle: Klucel (hydroxypropylcellulose) (HPC)
[8] = dose: 100.0 mg/kg/injection, schedule: Q01DX009 (ip), vehicle: Klucel (hydroxypropylcellulose) (HPC)
[9] = dose: 200.0 mg/kg/injection, schedule: Q01DX009 (ip), vehicle: Klucel (hydroxypropylcellulose) (HPC)
[10] = dose: 60.0 mg/kg/injection, schedule: Q01DX005 (ip), vehicle: saline with Tween-80
[11] = dose: 120.0 mg/kg/injection, schedule: Q01DX005 (ip), vehicle: saline with Tween-80
[12] = dose: 240.0 mg/kg/injection, schedule: Q01DX005 (ip), vehicle: saline with Tween-80
[13] = dose: 50.0 mg/kg/injection, schedule: Q01DX005 (ip), vehicle: saline with Tween-80
[14] = dose: 100.0 mg/kg/injection, schedule: Q01DX005 (ip), vehicle: saline with Tween-80
[15] = dose: 100.0 mg/kg/injection, schedule: Q01DX009 (ip), vehicle: saline
[16] = dose: 200.0 mg/kg/injection, schedule: Q01DX009 (ip), vehicle: saline

Measured: T/C

CC(=O)OC1CSc2ccccc2N(C(C)=O)C1 (stereo not drawn)
inactive: [1] 104 % of control | [2] 99 % of control | [3] 107 % of control

C=C(C)C(=O)Nc1ccc(NS(=O)(=O)c2ccc(C(C)CC)cc2)c(O)c1 (stereo not drawn)
inactive: dose: 50.0 mg/kg/injection, schedule: Q01DX009 (ip), vehicle: saline + alcohol 101 % of control | dose: 100.0 mg/kg/injection, schedule: Q01DX009 (ip), vehicle: saline + alcohol 106 % of control | dose: 200.0 mg/kg/injection, schedule: Q01DX009 (ip), vehicle: saline + alcohol 106 % of control

CNC(=O)OCc1ccc(NCCN(C)C)c2c(=O)c3cc(OS(=O)(=O)c4ccc(C)cc4)ccc3oc12
inactive: dose: 25.0 mg/kg/injection, schedule: Q01DX005 (ip), vehicle: water 90 % of control | dose: 50.0 mg/kg/injection, schedule: Q01DX005 (ip), vehicle: water 100 % of control | dose: 100.0 mg/kg/injection, schedule: Q01DX005 (ip), vehicle: water 102 % of control | dose: 200.0 mg/kg/injection, schedule: Q01DX005 (ip), vehicle: water 106 % of control

O/N=C1/CN(CCN2CC(NO)=N/C(=N\O)C2)CC(NO)=N1
inactive: [4] 90 % of control | [5] 89 % of control | [6] 89 % of control

CNc1ccc(/C=C/c2ccnc3ccccc23)cc1
inactive: dose: 3.12 mg/kg/injection, schedule: Q01DX009 (ip), vehicle: Klucel (hydroxypropylcellulose) (HPC) 95 % of control and 98 % of control | dose: 6.25 mg/kg/injection, schedule: Q01DX009 (ip), vehicle: Klucel (hydroxypropylcellulose) (HPC) 108 % of control and 111 % of control and 112 % of control | dose: 12.5 mg/kg/injection, schedule: Q01DX009 (ip), vehicle: Klucel (hydroxypropylcellulose) (HPC) 113 % of control and 97 % of control | dose: 25.0 mg/kg/injection, schedule: Q01DX009 (ip), vehicle: Klucel (hydroxypropylcellulose) (HPC) 109 % of control and 87 % of control

Cc1cc(S(=O)(=O)c2ccccc2C(=O)O)nc2c1ccc1ccccc12
inactive: [4] 105 % of control | [5] 103 % of control | [6] 103 % of control

O=[N+]([O-])c1ccc(-c2csc(COc3ccccc3)n2)cc1
inactive: dose: 50.0 mg/kg/injection, schedule: Q01DX009 (ip), vehicle: gum acacia 98 % of control | dose: 100.0 mg/kg/injection, schedule: Q01DX009 (ip), vehicle: gum acacia 101 % of control | dose: 200.0 mg/kg/injection, schedule: Q01DX009 (ip), vehicle: gum acacia 96 % of control

CNC(=S)/C(C(C)=O)=C(\C)Nc1ccccc1
inactive: [7] 101 % of control | [8] 106 % of control | [9] 106 % of control

CCOC(=O)C1=CC(Oc2cc(NS(=O)(=O)c3ccccc3)ccc2O)C(C(=O)OCC)=CC1Oc1cc(NS(=O)(=O)c2ccccc2)ccc1O (stereo not drawn)
inactive: dose: 37.5 mg/kg/injection, schedule: Q01DX001 (ip), vehicle: saline with Tween-80 105 % of control | dose: 75.0 mg/kg/injection, schedule: Q01DX001 (ip), vehicle: saline with Tween-80 100 % of control | dose: 150.0 mg/kg/injection, schedule: Q01DX001 (ip), vehicle: saline with Tween-80 100 % of control

CCCCCCCc1cc(=O)[nH]c(=S)[nH]1
inactive: [1] 96 % of control | [2] 95 % of control | [3] 89 % of control

Cc1cc(NC(=O)Nc2ccc(F)cc2)no1
inactive: [10] 94 % of control | [11] 93 % of control | [12] 96 % of control

CCC1(c2ccccc2)C(=O)N(C)C(=O)N(CCCl)C1=O (stereo not drawn)
inactive: [7] 96 % of control | [8] 98 % of control | [9] 93 % of control

O=C1C2C3CCC(O3)C2C(=O)N1CC#CCCl (stereo not drawn)
inactive: dose: 7.5 mg/kg/injection, schedule: Q01DX005 (ip), vehicle: saline with Tween-80 96 % of control | dose: 15.0 mg/kg/injection, schedule: Q01DX005 (ip), vehicle: saline with Tween-80 100 % of control

[B-][N+]12CC[N+]([B-])(CC1)CC2
inactive: dose: 0.06 mg/kg/injection, schedule: Q04DX003 (ip), vehicle: other 100 % of control | dose: 0.13 mg/kg/injection, schedule: Q04DX003 (ip), vehicle: other 100 % of control | dose: 0.25 mg/kg/injection, schedule: Q04DX003 (ip), vehicle: other 100 % of control | dose: 15.6 micrograms/kg/injection, schedule: Q01DX009 (ip), vehicle: other 100 % of control | dose: 31.3 micrograms/kg/injection, schedule: Q01DX009 (ip), vehicle: other 100 % of control | dose: 62.5 micrograms/kg/injection, schedule: Q01DX009 (ip), vehicle: other 100 % of control | dose: 62.5 micrograms/kg/injection, schedule: Q01DX009 (ip), vehicle: saline 87 % of control | dose: 125.0 micrograms/kg/injection, schedule: Q01DX009 (ip), vehicle: saline 104 % of control

Cc1cccc(NCc2ccccn2)n1
inactive: [13] 103 % of control | [14] 103 % of control

CC1OC(OC2C(Oc3cc(O)c4c(c3)O[C@H](c3ccc(O)cc3)CC4=O)OC(CO)C(O)C2O)C(O)C(O)C1O (stereo partly drawn)
inactive: [4] 97 % of control | [5] 97 % of control | [6] 101 % of control

CCCCCOC(=S)S
inactive: dose: 9.37 mg/kg/injection, schedule: Q01DX009 (ip), vehicle: saline 109 % of control | dose: 9.37 mg/kg/injection, schedule: Q04DX003 (ip), vehicle: saline with Tween-80 95 % of control | dose: 18.75 mg/kg/injection, schedule: Q01DX009 (ip), vehicle: saline 100 % of control | dose: 18.75 mg/kg/injection, schedule: Q04DX003 (ip), vehicle: saline with Tween-80 109 % of control | dose: 37.5 mg/kg/injection, schedule: Q01DX009 (ip), vehicle: saline 100 % of control | dose: 37.5 mg/kg/injection, schedule: Q04DX003 (ip), vehicle: saline with Tween-80 104 % of control

O=c1[nH]c(=O)c2nc(-c3ccc4c(c3)OCO4)cnc2[nH]1
inactive: dose: 100.0 mg/kg/injection, schedule: Q04DX003 (ip), vehicle: lactic acid 93 % of control | dose: 200.0 mg/kg/injection, schedule: Q04DX003 (ip), vehicle: lactic acid 87 % of control

O=C(Nc1cc(-c2ccccc2)[nH]n1)c1ccc(Cl)cc1
inactive: [10] 102 % of control | [11] 93 % of control | [12] 93 % of control

C[C@]12CC[C@@H]3c4cc(N)c(O)cc4CC[C@H]3[C@@H]1CC[C@@H]2O
inactive: [13] 100 % of control | [14] 103 % of control | dose: 200.0 mg/kg/injection, schedule: Q01DX005 (ip), vehicle: saline with Tween-80 100 % of control

c1ccc2c(c1)Sc1cnccc1N2CC1CO1 (stereo not drawn)
inactive: [15] 109 % of control | [16] 100 % of control | dose: 400.0 mg/kg/injection, schedule: Q01DX009 (ip), vehicle: saline 100 % of control

CC1(C)OC(=O)N(CO)C1=O
inactive: dose: 50.0 mg/kg/injection, schedule: Q01DX009 (ip), vehicle: saline 109 % of control | [15] 119 % of control | [16] 100 % of control

Oc1ccc(O)c(-n2nc3ccccc3n2)c1
inactive: [10] 104 % of control | [11] 103 % of control | [12] 100 % of control

O=C1CN=C(c2ccccn2)c2cc(Cl)ccc2N1CCO
inactive: dose: 100.0 mg/kg/injection, schedule: Q01DX009 (ip), vehicle: saline with Tween-80 100 % of control | dose: 200.0 mg/kg/injection, schedule: Q01DX009 (ip), vehicle: saline with Tween-80 105 % of control
